Experiments:
[1] = biological target: T1, panel of ninety-seven kinases (Homo sapiens, UniProt P09619); assay: DiscoverX KinomeScreen competition binding assay (kinase selectivity panel); details: PDGFRB; screened at 3000 nM
T1 construct: purchased DiscoverX; host or cells: E. coli (BL21-derived, T7 phage display) or HEK-293
Experimental: (§1) This has been investigated by testing atropisomer A-2 for off-target activity against a panel of ninety-seven kinases distributed across the kinome at a concentration of 3 μM using the DiscoverX KinomeScreen assay. The DiscoverX KinomeScreen assay is a site-directed competition binding assay which measures the binding affinity of a compound to a kinase, by use of a solid supported control compound which can bind or capture the kinases in solution. In the absence of a kinase-inhibitor test compound, all of the kinase will bind to the solid support. If a kinase-inhibitor test compound is added to the assay mix, the amount of kinase binding to the solid support will be reduced, the extent of reduction being dependent on the potency of the test compound as a kinase inhibitor. […] For most assays, kinase-tagged T7 phage strains were grown in parallel in 24-well blocks in an E. coli host derived from the BL21 strain. E. coli were grown to log-phase and infected with T7 phage from a frozen stock (multiplicity of infection=0.4) and incubated with shaking at 32° C. until lysis (90-150 minutes). The lysates were centrifuged (6,000×g) and filtered (0.2 μm) to remove cell debris. The remaining kinases were produced in HEK-293 cells and subsequently tagged with DNA for qPCR detection. Streptavidin-coated magnetic beads were treated with biotinylated small molecule ligands for 30 minutes at room temperature to generate affinity resins for kinase assays. The liganded beads were blocked with excess biotin and washed with blocking buffer (SeaBlock (Pierce), 1% BSA, 0.05% Tween 20, 1 mM DTT) to remove unbound ligand and to reduce non-specific phage binding. […] Test compounds were prepared as 40× stocks in 100% DMSO and directly diluted into the assay. All reactions were performed in polypropylene 384-well plates in a final volume of 0.02 ml. […] The beads were then re-suspended in elution buffer (1×PBS, 0.05% Tween 20, 0.5 μM non-biotinylated affinity ligand) and incubated at room temperature with shaking for 30 minutes. The kinase concentration in the eluates was measured by qPCR. Compounds that bind the kinase active site and directly (sterically) or indirectly (allosterically) prevent kinase binding to the immobilized ligand, will reduce the amount of kinase captured on the solid support. […] The strength of binding of the test molecule to the kinase can be expressed as the percent control (% Ctrl) The compound(s) were screened at 3000 nM concentration, and results for primary screen binding interactions are reported as ‘% Ctrl’, where lower numbers indicate stronger hits in the matrix on the following page(s). [formula] • negative control=DMSO (100% Ctrl) • positive control=control compound (0% Ctrl)

[2] = biological target: T2, panel of ninety-seven kinases (Homo sapiens, UniProt O15075); assay: as above; details: DCLK1; screened at 3000 nM
T2 construct: purchased DiscoverX; host or cells: E. coli (BL21-derived, T7 phage display) or HEK-293
Experimental: as §1

[3] = biological target: T3, panel of ninety-seven kinases (Homo sapiens, UniProt P17612); assay: as above; details: PRKACA; screened at 3000 nM
T3 construct: purchased DiscoverX; host or cells: E. coli (BL21-derived, T7 phage display) or HEK-293
Experimental: as §1

[4] = biological target: T4, panel of ninety-seven kinases (Homo sapiens, UniProt Q13873); assay: as above; details: BMPR2; screened at 3000 nM
T4 construct: purchased DiscoverX; host or cells: E. coli (BL21-derived, T7 phage display) or HEK-293
Experimental: as §1

[5] = biological target: T5, panel of ninety-seven kinases (Homo sapiens, UniProt P04629); assay: as above; details: NTRK1; screened at 3000 nM
T5 construct: purchased DiscoverX; host or cells: E. coli (BL21-derived, T7 phage display) or HEK-293
Experimental: as §1

[6] = biological target: T6, panel of ninety-seven kinases (Homo sapiens, UniProt P04626); assay: as above; details: ERBB2; screened at 3000 nM
T6 construct: purchased DiscoverX; host or cells: E. coli (BL21-derived, T7 phage display) or HEK-293
Experimental: as §1

[7] = biological target: T7, panel of ninety-seven kinases (Homo sapiens, UniProt P53779); assay: as above; details: MAPK10; screened at 3000 nM
T7 construct: purchased DiscoverX; host or cells: E. coli (BL21-derived, T7 phage display) or HEK-293
Experimental: as §1

[8] = biological target: T8, panel of ninety-seven kinases (Homo sapiens, UniProt Q96GD4); assay: as above; details: AURKB; screened at 3000 nM
T8 construct: purchased DiscoverX; host or cells: E. coli (BL21-derived, T7 phage display) or HEK-293
Experimental: as §1

[9] = biological target: T9, panel of ninety-seven kinases (Homo sapiens, UniProt P08581); assay: as above; details: MET; screened at 3000 nM
T9 construct: purchased DiscoverX; host or cells: E. coli (BL21-derived, T7 phage display) or HEK-293
Experimental: as §1

[10] = biological target: T10, PLK4 (catalytic domain) (Homo sapiens, UniProt O00444); assay: DiscoverX KinomeScreen competition binding assay
T10 construct: purchased DiscoverX; host or cells: E. coli (BL21-derived, T7 phage display) or HEK-293
Experimental: as §1

[11] = biological target: T11, PLK1 (catalytic domain) (Homo sapiens, UniProt P53350); assay: DiscoverX KinomeScreen competition binding assay
T11 construct: purchased DiscoverX; host or cells: E. coli (BL21-derived, T7 phage display) or HEK-293
Experimental: as §1

[12] = system: U87-Luc cells intracerebrally implanted; assay: U87-Luc orthotopic xenograft model; type: in vivo, male athymic nude mice; details: oral 100 mg/kg on days 1, 4, 7, 10 and 13; Day 15
Experimental: U87-Luc cells were intracerebrally implanted into the brains of male athymic nude mice and tumour growth was monitored by bioluminescent signal. In the treatment group animals were given an oral dose of 100 mg/kg of atropisomer A-2 on days 1, 4, 7, 10 and 13. The control group animals were given vehicle only.

[13] = system: HeLa; assay: Mitotic index (phospho-histone H3) assay; type: cell-based; details: Homo sapiens, % mitotic cells (pH3-positive), 24 hours
Description: (§2) Inhibiting the ability of PLK1 and PLK4 to bind to their partners through their PBDs is known to cause cells to arrest in mitosis. Experimentally, this can be measured by assessing the number of cells which are in mitosis at a certain time after treatment with a test compound by immunofluorescent detection of phosphorylated Histone H3 (pH3), a mark which is only present in mitotic cells. PLK1/4-PBD inhibitors are expected to cause a dose-dependent increase in pH3-positive cells, which is reported as Mitotic Index (MI)—the percentage of cells which, at a given time, are positive for this mitotic mark. Cells were plated at 10 000/well in 96-well plates and incubated overnight. The following day atropisomer A-2 stocks in DMSO were diluted in medium then added to cells with a maximum final DMSO concentration on cells of 0.2%. Cells were incubated with the compound for 24 hours then fixed in 3.7% formaldeyde. Cells were permeabilised with 0.1% Triton X-100 then incubated with anti-phospho-histone H3 (Ser10) antibody (Abcam ab5176). The cells were washed with PBS then incubated with AlexaFluor 488 labelled goat anti-rabbit IgG (Invitrogen A11034) in the presence of 4 ug/ml Hoechst 33342 (Invitrogen H3570). Cells were washed in PBS then imaged on an Arrayscan VTi HCS instrument (Thermo Fisher) using the Target Activation V4 Bioapplication. […]

[14] = system: U87MG; assay: Mitotic index (phospho-histone H3) assay; type: cell-based; details: Homo sapiens, U-87 MG; % mitotic cells (pH3-positive), 24 hours
Description: as §2

[15] = 3 μM (3000 nM), lower = stronger binding, read-out: % Control

T11 sequence (P53350 53-305 limits assumed): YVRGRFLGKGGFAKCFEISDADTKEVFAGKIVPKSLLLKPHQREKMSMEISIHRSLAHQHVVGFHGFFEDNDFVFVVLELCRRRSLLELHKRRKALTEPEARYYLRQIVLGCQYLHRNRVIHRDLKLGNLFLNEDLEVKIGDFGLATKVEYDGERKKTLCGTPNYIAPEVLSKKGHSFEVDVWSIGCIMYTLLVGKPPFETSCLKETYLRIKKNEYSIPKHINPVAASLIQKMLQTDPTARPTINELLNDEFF
T10 sequence (O00444 12-265 limits assumed): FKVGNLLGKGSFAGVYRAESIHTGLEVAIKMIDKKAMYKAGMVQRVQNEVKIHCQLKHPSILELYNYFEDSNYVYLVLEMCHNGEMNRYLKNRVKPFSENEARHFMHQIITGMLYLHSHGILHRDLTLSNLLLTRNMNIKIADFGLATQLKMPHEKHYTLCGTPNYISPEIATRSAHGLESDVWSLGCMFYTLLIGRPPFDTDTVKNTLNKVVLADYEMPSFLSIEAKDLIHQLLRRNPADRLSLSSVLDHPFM
T1 sequence (P09619 33-1106): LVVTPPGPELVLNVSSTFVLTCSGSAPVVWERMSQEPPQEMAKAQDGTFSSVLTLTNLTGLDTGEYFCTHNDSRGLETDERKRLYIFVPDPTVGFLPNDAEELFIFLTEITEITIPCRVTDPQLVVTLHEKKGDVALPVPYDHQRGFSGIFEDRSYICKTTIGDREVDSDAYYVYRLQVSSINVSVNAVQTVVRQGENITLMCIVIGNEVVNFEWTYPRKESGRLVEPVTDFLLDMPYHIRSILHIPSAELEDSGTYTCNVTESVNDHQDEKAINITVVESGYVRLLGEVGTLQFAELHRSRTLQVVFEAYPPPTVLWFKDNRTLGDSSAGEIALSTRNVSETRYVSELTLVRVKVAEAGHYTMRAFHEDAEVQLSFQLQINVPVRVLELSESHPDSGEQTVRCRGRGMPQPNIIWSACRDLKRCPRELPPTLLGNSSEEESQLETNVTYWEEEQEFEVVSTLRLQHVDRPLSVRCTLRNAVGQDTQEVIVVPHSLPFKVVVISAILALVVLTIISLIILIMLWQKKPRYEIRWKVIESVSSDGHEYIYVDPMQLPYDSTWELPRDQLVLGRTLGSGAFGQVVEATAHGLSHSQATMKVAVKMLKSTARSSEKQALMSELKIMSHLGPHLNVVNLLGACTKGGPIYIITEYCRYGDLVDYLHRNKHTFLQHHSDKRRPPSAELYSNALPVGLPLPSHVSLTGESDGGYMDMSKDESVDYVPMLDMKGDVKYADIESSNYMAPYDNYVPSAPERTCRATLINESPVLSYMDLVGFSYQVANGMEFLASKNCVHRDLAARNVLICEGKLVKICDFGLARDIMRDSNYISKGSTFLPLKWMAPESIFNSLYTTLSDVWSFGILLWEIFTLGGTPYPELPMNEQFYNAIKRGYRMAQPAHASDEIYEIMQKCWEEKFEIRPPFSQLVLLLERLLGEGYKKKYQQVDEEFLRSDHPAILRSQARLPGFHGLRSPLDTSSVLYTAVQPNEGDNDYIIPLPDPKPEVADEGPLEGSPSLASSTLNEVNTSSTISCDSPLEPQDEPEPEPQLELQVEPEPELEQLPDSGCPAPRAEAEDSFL
T6 sequence (P04626 23-1255): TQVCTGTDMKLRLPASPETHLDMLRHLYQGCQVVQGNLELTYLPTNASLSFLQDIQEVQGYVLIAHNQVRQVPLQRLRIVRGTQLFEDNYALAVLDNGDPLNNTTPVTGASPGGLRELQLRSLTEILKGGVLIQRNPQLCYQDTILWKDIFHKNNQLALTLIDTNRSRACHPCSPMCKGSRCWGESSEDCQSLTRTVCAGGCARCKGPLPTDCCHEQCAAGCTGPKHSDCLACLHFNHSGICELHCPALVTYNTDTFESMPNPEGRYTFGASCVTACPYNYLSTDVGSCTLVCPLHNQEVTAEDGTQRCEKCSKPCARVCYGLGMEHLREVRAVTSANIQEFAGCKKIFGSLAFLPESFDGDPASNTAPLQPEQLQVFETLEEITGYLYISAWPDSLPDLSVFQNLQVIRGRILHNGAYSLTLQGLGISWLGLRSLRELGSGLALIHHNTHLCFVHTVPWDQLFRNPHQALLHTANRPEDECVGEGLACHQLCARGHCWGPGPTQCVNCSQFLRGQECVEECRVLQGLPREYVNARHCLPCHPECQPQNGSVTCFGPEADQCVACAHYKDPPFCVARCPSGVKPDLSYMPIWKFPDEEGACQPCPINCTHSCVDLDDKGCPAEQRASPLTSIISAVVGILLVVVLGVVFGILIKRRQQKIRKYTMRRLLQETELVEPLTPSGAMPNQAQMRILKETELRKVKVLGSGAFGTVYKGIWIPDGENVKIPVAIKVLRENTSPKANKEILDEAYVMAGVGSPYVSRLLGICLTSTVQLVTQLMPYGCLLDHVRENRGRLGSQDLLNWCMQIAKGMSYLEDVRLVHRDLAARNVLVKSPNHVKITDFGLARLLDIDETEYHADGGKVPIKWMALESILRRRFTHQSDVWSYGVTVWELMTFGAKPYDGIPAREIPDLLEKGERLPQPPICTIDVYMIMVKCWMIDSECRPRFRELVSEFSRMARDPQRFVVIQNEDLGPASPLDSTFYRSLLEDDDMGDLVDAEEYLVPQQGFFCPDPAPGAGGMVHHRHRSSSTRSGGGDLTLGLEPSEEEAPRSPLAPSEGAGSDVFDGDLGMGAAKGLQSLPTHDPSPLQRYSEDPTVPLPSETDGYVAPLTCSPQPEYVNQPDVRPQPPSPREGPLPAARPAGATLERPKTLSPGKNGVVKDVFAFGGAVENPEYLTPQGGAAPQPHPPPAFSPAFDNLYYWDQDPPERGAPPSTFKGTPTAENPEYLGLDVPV
T2 sequence (O15075 whole entry): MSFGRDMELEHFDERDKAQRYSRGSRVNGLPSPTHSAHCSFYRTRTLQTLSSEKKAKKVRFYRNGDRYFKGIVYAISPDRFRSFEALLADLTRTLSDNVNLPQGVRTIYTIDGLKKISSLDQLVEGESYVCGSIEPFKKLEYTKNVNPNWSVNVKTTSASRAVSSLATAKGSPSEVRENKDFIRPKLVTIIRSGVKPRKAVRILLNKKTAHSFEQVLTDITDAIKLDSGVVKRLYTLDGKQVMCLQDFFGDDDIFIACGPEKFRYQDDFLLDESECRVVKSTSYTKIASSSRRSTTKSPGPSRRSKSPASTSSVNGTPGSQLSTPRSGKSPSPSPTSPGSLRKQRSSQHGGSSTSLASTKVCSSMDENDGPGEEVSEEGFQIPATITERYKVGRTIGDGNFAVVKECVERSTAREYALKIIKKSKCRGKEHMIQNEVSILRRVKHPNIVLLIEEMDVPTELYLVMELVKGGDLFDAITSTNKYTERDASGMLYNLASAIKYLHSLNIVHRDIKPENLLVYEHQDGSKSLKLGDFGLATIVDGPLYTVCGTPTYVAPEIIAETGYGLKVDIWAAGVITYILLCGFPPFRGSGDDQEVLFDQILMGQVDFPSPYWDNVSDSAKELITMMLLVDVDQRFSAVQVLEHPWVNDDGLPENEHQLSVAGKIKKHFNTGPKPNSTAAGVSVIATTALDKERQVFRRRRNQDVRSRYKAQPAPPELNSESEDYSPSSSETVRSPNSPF
T5 sequence (P04629 33-796): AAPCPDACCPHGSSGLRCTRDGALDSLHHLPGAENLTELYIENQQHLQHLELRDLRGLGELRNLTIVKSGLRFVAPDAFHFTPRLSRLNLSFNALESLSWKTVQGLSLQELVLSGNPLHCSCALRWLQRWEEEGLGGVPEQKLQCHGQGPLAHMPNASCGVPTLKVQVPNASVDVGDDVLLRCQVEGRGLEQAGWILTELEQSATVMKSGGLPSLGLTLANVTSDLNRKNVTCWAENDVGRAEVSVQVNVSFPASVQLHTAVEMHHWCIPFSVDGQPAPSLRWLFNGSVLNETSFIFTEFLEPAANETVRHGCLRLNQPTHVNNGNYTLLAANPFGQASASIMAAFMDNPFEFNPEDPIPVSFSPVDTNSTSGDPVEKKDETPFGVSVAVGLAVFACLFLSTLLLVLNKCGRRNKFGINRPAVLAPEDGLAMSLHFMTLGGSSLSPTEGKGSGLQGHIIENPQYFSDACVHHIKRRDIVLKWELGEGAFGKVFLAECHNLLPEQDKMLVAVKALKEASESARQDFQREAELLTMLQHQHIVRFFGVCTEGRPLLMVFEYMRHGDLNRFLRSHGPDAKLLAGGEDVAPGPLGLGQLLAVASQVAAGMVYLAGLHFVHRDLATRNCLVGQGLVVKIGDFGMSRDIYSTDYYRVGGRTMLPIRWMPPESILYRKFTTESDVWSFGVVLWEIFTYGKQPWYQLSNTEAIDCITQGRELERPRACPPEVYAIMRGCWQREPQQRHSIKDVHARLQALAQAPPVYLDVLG
T8 sequence (Q96GD4 whole entry): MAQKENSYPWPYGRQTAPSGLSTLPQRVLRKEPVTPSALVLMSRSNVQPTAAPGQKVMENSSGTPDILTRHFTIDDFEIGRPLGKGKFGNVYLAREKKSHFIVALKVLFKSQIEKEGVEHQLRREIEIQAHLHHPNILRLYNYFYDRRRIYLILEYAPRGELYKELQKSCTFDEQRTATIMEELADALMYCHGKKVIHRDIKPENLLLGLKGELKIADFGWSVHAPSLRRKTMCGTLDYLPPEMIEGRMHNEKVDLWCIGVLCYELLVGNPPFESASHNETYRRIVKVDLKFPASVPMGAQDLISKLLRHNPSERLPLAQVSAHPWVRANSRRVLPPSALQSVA

% Ctrl @ 3 μM [1]: 100 % Ctrl
% Ctrl @ 3 μM [2]: 87 % Ctrl
% Ctrl @ 3 μM [3]: 100 % Ctrl
% Ctrl @ 3 μM [4]: 82 % Ctrl
% Ctrl @ 3 μM [5]: 100 % Ctrl
% Ctrl @ 3 μM [6]: 66 % Ctrl
% Ctrl @ 3 μM [7]: 93 % Ctrl
% Ctrl @ 3 μM [8]: 84 % Ctrl
% Ctrl @ 3 μM [9]: 100 % Ctrl
remaining binding at 3 µM [10, 15]: 100%
% Ctrl @ 3 μM ([10]; PLK4, screened at 3000 nM): 100 % Ctrl
remaining binding at 3 µM [11, 15]: 97%
% Ctrl @ 3 μM ([11]; PLK1, screened at 3000 nM): 97 % Ctrl
EC50 [13]: 30 nM
EC50 [14]: 90 nM
SMILES: CN(C)CCNC(=O)c1ccc(-c2ccc(-c3ccc(Cl)cc3)n2-c2ccccc2C(F)(F)F)cc1 (single isomer, unassigned) [Atropisomer A-2]
bioluminescent tumour signal, treated versus control [12]: a decrease in tumour signal
